Results reported in patent US20100113453A1, “Sublingual Formulations of D-Cycloserine and Methods of Using Same” (priority 2007, published 2010).
Read-outs that look alike come from different tables or passages of the source.

What was measured:
[1] = Absorption into the blood following sublingual versus oral administration of D-cycloserine; format: in vivo, Sprague-Dawley rats; settings: rat; for concentration at 0 min / concentration at 10 min / concentration at 20 min / concentration at 40 min / concentration at 80 min: male, Sprague-Dawley, plasma, 15 mg/kg, read-out: DCS plasma level; for concentration at 0 min: 0 minutes (baseline before DCS administration); for concentration at 10 min: 10 minutes elapsed; for concentration at 20 min: 20 minutes elapsed; for concentration at 40 min: 40 minutes elapsed; for concentration at 80 min: 80 minutes elapsed
Method: Subjects: 18 male, Sprague-Dawley rats (Charles River, Raleigh N.C.).
Procedure: The rats were implanted with intravenous catheters using the methods of Thrivikraman et al., (“Jugular vein catheterization for repeated blood sampling in the unrestrained conscious rat” (2002) Brain Res. Brain Res. Protoc., 10(2), p. 84-94). Following two days of recovery, rats were lightly anesthetized with isofluorothane and given DCS either sublingually (n=10) or orally (n=8). D-cycloserine was dissolved in saline and given at a volume of 75 μL/rat sublingually and (after dilution by a factor of two) 150 μL/rat when administered orally (concentration of 15 mg/kg). Aliquots of 0.5-1.0 mL blood samples were collected: at baseline before DCS administration; and subsequently at 10, 20, 40, and 80 minutes after DCS administration. Blood samples were injected into pre-heparinized tubes and immediately placed on ice. Because the assays required at least 1 mL of plasma, samples from two rats given the same treatment and sampled at the same time were combined so that there were 25 samples from the sublingual group (10 rats/2×5 samples) and 20 samples from the oral group (8 rats/2×5 samples). Plasma was separated by centrifugation at 770 g for 10 minutes, placed in polypropylene tubes, frozen at −80° C., then shipped on dry ice to an outside laboratory to assay DCS levels. […] At the dosages studied, the resulting DCS plasma levels were near the lower detection limits of the assay.

[2] = test system: Mycobacterium tuberculosis strains; settings: typical Mycobacterium tuberculosis strains; cited from earlier work
[3] = cited from earlier work
[4] = sub-antimicrobial dose, cited from earlier work
[5] = typical doses for the treatment of tuberculosis (500-1000 mg/day), chronic dosing; cited from earlier work

Compound: NC1CONC1=O (stereo not drawn) [DCS, 4-amino-1,2-oxazolidin-3-one]
- concentration at 0 min ([1]; other: sublingual, sublingual): 0 ng/mL
- concentration at 10 min ([1]; other: sublingual, sublingual): 900 ng/mL
- concentration at 20 min ([1]; other: sublingual, sublingual): 1600 ng/mL
- concentration at 40 min ([1]; other: sublingual, sublingual): 4700 ng/mL
- concentration at 80 min ([1]; other: sublingual, sublingual): 5200 ng/mL
- concentration at 0 min ([1]; oral): 0 ng/mL
- concentration at 10 min ([1]; oral): 1600 ng/mL
- concentration at 20 min ([1]; oral): 2300 ng/mL
- concentration at 40 min ([1]; oral): 5400 ng/mL
- concentration at 80 min ([1]; oral): 5400 ng/mL
- blood plasma concentrations after sublingual administration relative to oral administration ([1]; sublingual versus oral): comparable to those achieved by oral administration
- minimum inhibitory concentrations (MIC) in vitro [2]: 6 to 25 µg/mL
- serum concentrations generally maintained ([3]; dose of 500 mg/day, chronic treatment): 25000 to 30000 ng/mL
- half-life ([3]; known oral tablets, primarily renal excretion): 10 h
- time of peak serum concentrations after dosing ([3]; known oral tablets): 3 to 8 h
- peak serum concentrations ([4]; child subject, less than or equal to 2 mg/kg): less than or equal to 5 μg/mL
- peak serum concentrations ([4]; less than or equal to 2 mg/kg and greater than about 0.2 mg/kg): less than or equal to 5 μg/mL
- side effects in treated subjects [5]: significant neurological side effects
